Measurements as given in patent US7683097B2, “Topoisomerase inhibitors” (Propharmacon Inc., priority 2004, dated 2010).

Key:
Format in all cases: cell-based
[1] = system: NCI-H460; test: Cell proliferation assay, NSC Lung Cancer NCI-H460; details: Homo sapiens, read-out: GI50 or IC50, NSC Lung Cancer NCI-H460
Experimental: (§1) The compounds listed in Table III were prepared using the procedures outlined in the above Examples.

[2] = system: HCT-15; test: Cell proliferation assay, Colon Cancer HCT-15; details: Homo sapiens, read-out: GI50 or IC50, Colon Cancer HCT-15
Experimental: as §1

[3] = system: SF-268; test: Cell proliferation assay, CNS Cancer SF-268; details: Homo sapiens, read-out: GI50 or IC50, CNS Cancer SF-268
Experimental: as §1

[4] = system: SK-MEL-2; test: Cell proliferation assay, Melanoma SK-MEL-2; details: Homo sapiens, read-out: GI50 or IC50, Melanoma SK-MEL-2
Experimental: (§2) The compounds listed in Table IV were prepared using the procedures outlined in the above Examples.

[5] = system: OVCAR-3; test: Cell proliferation assay, Ovarian Cancer OVCAR-3; details: Homo sapiens, read-out: GI50 or IC50, Ovarian Cancer OVCAR-3
Experimental: as §2

[6] = system: UO-31; test: Cell proliferation assay, Renal Cancer UO-31; details: Homo sapiens, read-out: GI50 or IC50, Renal Cancer UO-31
Experimental: as §2

[7] = system: PC-3; test: Cell proliferation assay, Prostate Cancer PC-3; details: Homo sapiens, read-out: GI50 or IC50, Prostate Cancer PC-3
Experimental: as §2

[8] = system: MCF-7; test: Cell proliferation assay (panel), Breast Cancer MCF-7; details: Homo sapiens, MCF7; read-out: GI50 or IC50, Breast Cancer MCF-7
Experimental: as §2

[9] = system: MCF-7; test: Cell proliferation assay, MCF-7; details: Homo sapiens, MCF7; MCF-7 cell line, Table II; read-out: Activity (IC50, cell proliferation)
Experimental: The MCF-7 cell line, the MDR cell line, and the MCF-7/ADR cell line were used. Alamar Blue™ was used to quantitate cell viability.
The compounds listed in Table II were prepared using the procedures outlined in the above Examples.

[10] = system: MES-SA/Dx5; test: Cell proliferation assay, Uterine MES-SA/Dx5; details: Homo sapiens, read-out: GI50 or IC50, Uterine MES-SA/Dx5
Experimental: as §2

[11] = system: NCI-ADR; test: Cell proliferation assay, Breast Cancer NCI-ADR; details: Homo sapiens, NCI/ADR-RES; read-out: GI50 or IC50, Breast Cancer NCI-ADR
Experimental: as §2

[12] = system: HL60-MX1 (MDR); test: Cell proliferation assay, Leukemia HL60-MX1 (MDR); details: read-out: GI50 or IC50, Leukemia HL60-MX1 (MDR)
Experimental: as §1

[13] = system: H69-AR (MDR); test: Cell proliferation assay, SC Lung Cancer H69-AR (MDR); details: Homo sapiens, H69AR; read-out: GI50 or IC50, SC Lung Cancer H69-AR (MDR)
Experimental: as §1

[14] = system: HL-60; test: Cell proliferation assay, Leukemia HL-60; details: Homo sapiens, read-out: GI50 or IC50, Leukemia HL-60
Experimental: as §1

Row | SMILES | IC50 [1] [nM] | IC50 [2] [nM] | IC50 [3] [nM] | IC50 [4] [nM] | IC50 [5] [nM] | IC50 [7] [nM] | IC50 [8] [nM] | IC50 [9] [nM] | further results
1 | Cc1ccc(NC(=O)c2ccc(Cl)c(-c3ccc(-c4ccccc4)cc3)c2)cc1 [Compound 20, 6-Chloro-[1,1′;4′,1″]terphenyl-3-carboxylic acid p-tolylamide] | 1000 to 25000 | > 25000 | 1000 to 25000 | > 25000 | 1000 to 25000 | 1000 to 25000 | ≤ 1000 |  | IC50 [6]: 1000 to 25000 nM
2 | COc1ccc(NC(=O)c2ccc(Cl)c(-c3ccc(-c4ccccc4)cc3)c2)cc1 [Compound 303, 6″-Chloro-[1,1′;4′,1″]terphenyl-3″-carboxylic acid (4-methoxy-phenyl)-amide] | ≤ 1000 | ≤ 1000 | ≤ 1000 | > 25000 | ≤ 1000 | ≤ 1000 | ≤ 1000 |  | IC50 [6]: 1000 to 25000 nM
3 | O=C(Nc1ccc(N2CCNCC2)nc1)c1ccc(Cl)c(-c2ccc(-c3ccccc3)cc2)c1 [Compound 36, 6″-Chloro-[1,1′;4′,1″]terphenyl-3″-carboxylic acid (6-piperazin-1-yl-pyridin-3-yl)-amide] | ≤ 1000 |  |  |  |  |  | ≤ 1000 |  | IC50 [10]: ≤ 1000 nM; IC50 [11]: ≤ 1000 nM
4 | CC(C)(C)OC(=O)NOC(=O)c1ccc(Cl)c(-c2ccc(-c3ccccc3)cc2)c1 |  |  |  |  |  |  |  | > 10000 | 
5 | O=C(NCCN1CCCC1)c1ccc(Cl)c(-c2ccc(-c3ccccc3)cc2)c1 [Compound 26, 6-Chloro-[1,1′;4′,1″]terphenyl-3-carboxylic acid (2-pyrrolidin-1-yl-ethyl)-amide] | 1000 to 25000 | 1000 to 25000 | 1000 to 25000 | 1000 to 25000 | 1000 to 25000 | 1000 to 25000 | 1000 to 25000 |  | IC50 [6]: 1000 to 25000 nM
6 | CS(=O)(=O)c1ccc(-c2cc(C(=O)NC3=NCCS3)ccc2Cl)cc1 |  |  |  |  |  |  |  | 1000 to 10000 | 
7 | C=C[S+]([O-])c1ccc(NC(=O)c2ccc(Cl)c(-c3ccc(-c4ccccc4)cc3)c2)cn1 (stereo not shown) |  |  |  |  |  |  |  | 1000 to 10000 | 
8 | O=C(NCC(c1cccnc1)N1CCCC1)c1ccc(Cl)c(-c2ccc(-c3ccccc3)cc2)c1 (stereo not shown) [Compound 32, 6-Chloro-[1,1′;4′,1″]terphenyl-3-carboxylic acid (2-pyridin-3-yl-2-pyrrolidin-1-yl-ethyl)-amide] |  |  | 1000 to 25000 |  |  |  | ≤ 1000 |  | IC50 [12]: 1000 to 25000 nM; IC50 [13]: ≤ 1000 nM; IC50 [10]: ≤ 1000 nM; IC50 [11]: 1000 to 25000 nM
9 | O=C(NC(CC1CCCCC1)C(=O)O)c1ccc(Cl)c(-c2cccc(-c3ccccc3)c2)c1 (stereo not shown) [Compound 236, 2-[(6-Chloro-[1,1′;3′,1″]terphenyl-3-carbonyl)-amino]-3-cyclohexyl-propionic acid] |  |  | > 25000 |  |  |  | > 25000 |  | 
10 | O=C(NC1=NCCS1)c1ccc(Cl)c(-c2ccc(-c3ccccc3)cc2)c1 [Compound 33, 6″-Chloro-[1,1′;4′,1″]terphenyl-3″-carboxylic acid (4,5-dihydro-thiazol-2-yl)-amide] | 1000 to 25000 | > 25000 | 1000 to 25000 | 1000 to 25000 | 1000 to 25000 | 1000 to 25000 | 1000 to 25000 |  | IC50 [14]: 1000 to 25000 nM; IC50 [6]: 1000 to 25000 nM
11 | COc1ccc(NC(=O)c2ccc(C)c(-c3ccc(-c4ccccn4)cc3)c2)cn1 [Compound 40, 6-Methyl-4′-pyridin-2-yl-biphenyl-3-carboxylic acid (6-methoxy-pyridin-3-yl)-amide] | ≤ 1000 | ≤ 1000 | ≤ 1000 | > 25000 | ≤ 1000 | ≤ 1000 | ≤ 1000 |  | IC50 [12]: ≤ 1000 nM; IC50 [13]: ≤ 1000 nM; IC50 [10]: ≤ 1000 nM
12 | O=C(NCCN1CCCC1)c1cccc(-c2ccc(-c3ccccc3)cc2)c1 |  |  |  |  |  |  |  | 1000 to 10000 | 
13 | O=C(Nc1nnc(C(F)(F)F)s1)c1ccc(Cl)c(-c2ccc(-c3ccccc3)cc2)c1 |  |  |  |  |  |  |  | 1000 to 10000 | 
14 | O=C(NC(CCc1ccccc1)C(=O)O)c1ccc(Cl)c(-c2cccc(-c3ccccc3)c2)c1 (stereo not shown) [Compound 223, 2-[(6-Chloro-[1,1′;3′,1″]terphenyl-3-carbonyl)-amino]-4-phenyl-butyric acid] |  |  | > 25000 |  |  |  | > 25000 |  | 
15 | CCN(C(=O)c1ccc(Cl)c(-c2ccc(-c3ccccc3)cc2)c1)c1ccc2c(c1)OCO2 |  |  |  |  |  |  |  | > 10000 | 
16 | CCN(CC)CCNC(=O)c1ccc(Cl)c(-c2ccc(-c3ccccc3)cc2)c1 |  |  |  |  |  |  |  | < 1000 | 
17 | O=C(Nc1cccnc1Cl)c1ccc(Cl)c(-c2ccc(-c3ccccc3)cc2)c1 |  |  |  |  |  |  |  | > 10000 | 
18 | O=C(NCCc1c[nH]cn1)C1Cc2ccccc2CN1C(=O)c1ccc(Cl)c(-c2ccc(-c3ccccc3)cc2)c1 (stereo not shown) |  |  |  |  |  |  |  | > 10000 | 

The next lines start with results.

Row | IC50 [1] [nM] | IC50 [2] [nM] | IC50 [3] [nM] | IC50 [4] [nM] | IC50 [5] [nM] | IC50 [7] [nM] | IC50 [8] [nM] | IC50 [9] [nM] | SMILES | further results
19 | ≤ 1000 |  |  |  |  |  | ≤ 1000 |  | COc1ccc(NC(=O)c2ccc(Cl)c(-c3cccc(-c4ccccc4)c3)c2)cn1 [Compound 68, 6-Chloro-[1,1′;3′,1″]terphenyl-3-carboxylic acid (6-methoxy-pyridin-3-yl)-amide] | 
20 |  |  |  |  |  |  |  | < 1000 | COc1ccc(NC(=O)c2ccc(Cl)c(-c3cccc(O)c3)c2)cn1 | 
21 | ≤ 1000 | ≤ 1000 | ≤ 1000 | 1000 to 25000 | ≤ 1000 | ≤ 1000 | ≤ 1000 |  | O=C(Nc1ccc(F)nc1)c1ccc(Cl)c(-c2ccc(-c3ccccc3)cc2)c1 [Compound 338, 6-Chloro-[1,1′;4′,1″]terphenyl-3-carboxylic acid (6-fluoro-pyridin-3-yl)-amide] | IC50 [6]: 1000 to 25000 nM
22 |  |  |  |  |  |  |  | < 1000 | COc1ccc(NC(=O)c2ccc(Cl)c(-c3ccc(-c4cccc(S(C)(=O)=O)c4)cc3)c2)cn1 | 
23 | ≤ 1000 | ≤ 1000 | 1000 to 25000 | 1000 to 25000 | ≤ 1000 | ≤ 1000 | ≤ 1000 |  | O=C(Nc1ccc(Cl)nc1)c1ccc(Cl)c(-c2ccc(-c3ccccc3)cc2)c1 [Compound 13, 6-Chloro-[1,1′;4′,1″]terphenyl-3-carboxylic acid (6-chloro-pyridin-3-yl)-amide] | IC50 [6]: 1000 to 25000 nM
24 | ≤ 1000 | ≤ 1000 | 1000 to 25000 | 1000 to 25000 | ≤ 1000 | ≤ 1000 | ≤ 1000 |  | COc1ccc(NC(=O)c2ccc(Cl)c(-c3ccc(-c4ccccc4)c(F)c3)c2)cn1 [Compound 6, 6″-Chloro-2′-fluoro-[1,1′;4′,1″]terphenyl-3″-carboxylic acid (6-methoxy-pyridin-3-yl)-amide] | IC50 [12]: ≤ 1000 nM; IC50 [13]: ≤ 1000 nM; IC50 [10]: ≤ 1000 nM; IC50 [6]: 1000 to 25000 nM; IC50 [11]: ≤ 1000 nM
25 |  |  |  |  |  |  |  | < 1000 | COc1ccc(NC(=O)c2ccc(Cl)c(-c3cccc(C(N)=O)c3)c2)cn1 | 
26 | ≤ 1000 | ≤ 1000 | ≤ 1000 | ≤ 1000 | ≤ 1000 | ≤ 1000 | ≤ 1000 |  | COc1ccc(NC(=O)c2ccc(Cl)c(-c3ccc(-c4ccncc4)cc3)c2)cn1 [Compound 17, 6-Chloro-4′-pyridin-4-yl-biphenyl-3-carboxylic acid (6-methoxy-pyridin-3-yl)-amide] | IC50 [12]: ≤ 1000 nM; IC50 [10]: ≤ 1000 nM; IC50 [6]: ≤ 1000 nM; IC50 [11]: ≤ 1000 nM
27 |  |  |  |  |  |  |  | < 1000 | COc1ncc(NC(=O)c2ccc(Cl)c(-c3ccc(-c4ccccc4)cc3)c2)cn1 | 
28 |  |  |  |  |  |  |  | < 1000 | COc1ccc(NC(=O)c2ccc(Cl)c(-c3ccc(-c4cccc(O)c4)cc3)c2)cn1 | 
